# Experiments:
# E. coli O0157:H7 EDL 933 = assay: Bacterial count in whey powder paste inoculated with E. coli O157:H7, with LAE added; type: cell-based, Escherichia coli O157:H7; conditions: whey powder paste pH 6.1-6.2; for bacterial count after 48 h as % of the value on addition: 800 mg of LAE/kg, 48 h storage at room temperature; for change of bacterial count versus control sample without LAE: LAE 200, 400 and 800 mg/kg, after 24 h, continued with longer storage at room temperature
# Description: (§1) The invention is described in more detail by the examples below. In these examples partially desugared whey powder is used, a constituent of many feedstuffs which was set to the pH range of 6.1-6.2 which is favorable for the growth of many bacteria. The whey powder was made into a paste using aqueous buffer solution, so that together with the bacterial suspension in physiological saline a ratio of whey powder to water of approximately 2:1 resulted. LAE was added to the samples at concentrations of 200, 400 and 800 mg/kg, while a control sample received no addition. The bacterial count was determined in a conventional manner in the resultant pastes immediately after their preparation, after 24 h and after 48 h of storage at room temperature.
# Effect on Escherichia coli O157:H7 (approximately 6×10^5/g)
# A paste of whey powder prepared in the manner described was inoculated with approximately 6×10^5/g of E. coli O0157:H7 EDL 933. […] At an addition of 800 mg of LAE/kg, the bacterial count after 48 h was less than 10% of the value on addition.
# Effect on Escherichia coli O157:H7 (approximately 3×1 0^3/g)
# A paste of whey powder prepared in the manner described was inoculated with approximately 3×10^3/g of E. coli O0157:H7 EDL 933. […] At an addition of 800 mg of LAE/kg, the bacterial count after 48 h was less than 10% of the value on addition.
# [1] = test system: L. monocytogenes ATCC 13311; assay: Bacterial count in whey powder paste inoculated with Listeria monocytogenes, with LAE added; type: cell-based; conditions: whey powder paste pH 6.1-6.2; for bacterial count after 48 h as % of the value on addition: 800 mg of LAE/kg, 48 h storage at room temperature; for change of bacterial count versus control sample without LAE: LAE 200, 400 and 800 mg/kg, after 24 h, continued with longer storage at room temperature
# Description: as §1
# Effect on Listeria monocytogenes (approximately 5×10^5/g)
# A paste of whey powder prepared in the manner described was inoculated with approximately 5×10^5/g L. monocytogenes ATCC 13311. […] At an addition of 800 mg of LAE/kg, the bacterial count after 48 h was approximately 15% of the value on addition.
# Effect on Listeria monocytogenes (approximately 2×10^3/g)
# A paste of whey powder prepared in the manner described was inoculated with approximately 2×10^3/g L. monocytogenes ATCC 13311. […] At an addition of 800 mg of LAE/kg, the bacterial count after 48 h was less than 20% of the value on addition.
# [2] = test system: S. typhimurium NCTC 10527; assay: Bacterial count in whey powder paste inoculated with Salmonella typhimurium, with LAE added; type: cell-based; conditions: inoculum approximately 3×10^4/g, whey powder paste pH 6.1-6.2
# Description: as §1
# Effect on Salmonella typhimurium (approximately 3×10^4/g)
# A paste of whey powder prepared in the manner described was inoculated with approximately 3×10^4/g S. typhimurium NCTC 10527.
# [3] = inoculum approximately 3×10^3/g
# [4] = inoculum approximately 6×10^5/g
# [5] = inoculum approximately 2×10^3/g
# [6] = inoculum approximately 5×10^5/g
structure (smiles),measurement,setting,value
"CCCCCCCCCCCC(=O)N[C@@H](CCCNC(=N)N)C(=O)OCC [LAE, lauroylarginine ethyl ester]",bacterial count after 48 h as % of the value on addition,E. coli O0157:H7 EDL 933; [3],less than 10%
same,change of bacterial count versus control sample without LAE,E. coli O0157:H7 EDL 933; [3],much more marked concentration-dependent decrease
same,bacterial count after 48 h as % of the value on addition,E. coli O0157:H7 EDL 933; [4],less than 10%
same,change of bacterial count versus control sample without LAE,E. coli O0157:H7 EDL 933; [4],marked concentration-dependent decrease
same,bacterial count after 48 h as % of the value on addition,[1]; [5],less than 20%
same,change of bacterial count versus control sample without LAE,[1]; [5],more marked concentration-dependent decrease
same,bacterial count after 48 h as % of the value on addition,[1]; [6],approximately 15%
same,change of bacterial count versus control sample without LAE,[1]; [6],more marked concentration-dependent decrease
same,detectability of test bacteria after 48 h,"[2]; 800 mg of LAE/kg, 48 h storage at room temperature",no longer detectable
same,change of bacterial count versus control sample without LAE,"[2]; LAE 200, 400 and 800 mg/kg, after 24 h, continued with longer storage at room temperature",much more marked concentration-dependent decrease

# — US20030049305A1, “Preserved feedstuffs and process for their production” (priority 2001, published 2003)
